We go through 11 compounds from ChEMBL document CHEMBL3271999, “Antimycotic imidazoles. 2. Synthesis and antimycotic properties of 1-[2-(arylalkyl)-2-phenylethyl]-1H-imidazoles” (1977).

One assay has as its system Sporothrix schenckii. The experiment in a line: Antifungal activity against Sporothrix schenckii assessed as lowest dose level for total inhibition of fungal growth. In kind it is functional.
The test system of assay [1] is Candida albicans. The experiment in a line: In vivo antifungal activity against Candida albicans topically infected in guinea pig assessed as animal cured at 10 mg/kg, po. In kind it is functional, organism-based. Further details: dose 10 mg/kg.
Assay [2] deals with Staphylococcus haemolyticus. The experiment in a line: Antibacterial activity against Staphylococcus haemolyticus assessed as lowest dose level for total inhibition of bacterial growth. The format is functional.
For a further assay, the system named is Candida tropicalis. The experiment in a line: Antifungal activity against Candida tropicalis assessed as lowest dose level for total inhibition of fungal growth. In kind it is functional.
The test system of assay [3] is Candida albicans. The experiment in a line: Antifungal activity against Candida albicans assessed as lowest dose level for total inhibition of fungal growth. In kind it is functional.
A further assay relates to Streptococcus pyogenes. The experiment in a line: Antibacterial activity against Streptococcus pyogenes assessed as lowest dose level for total inhibition of bacterial growth. In kind it is functional.
Assay [4] concerns Trichophyton mentagrophytes. The experiment in a line: Antifungal activity against Trichophyton mentagrophytes assessed as lowest dose level for total inhibition of fungal growth. The format is functional.
The subject of another assay is Trichophyton rubrum. The experiment in a line: Antifungal activity against Trichophyton rubrum assessed as lowest dose level for total inhibition of fungal growth. In kind it is functional.
The subject of a further assay is Aspergillus fumigatus. The experiment in a line: Antifungal activity against Aspergillus fumigatus assessed as lowest dose level for total inhibition of fungal growth. In kind it is functional.
In assay [5] the test system is Erysipelothrix rhusiopathiae. The experiment in a line: Antibacterial activity against Erysipelothrix insidiosa assessed as lowest dose level for total inhibition of bacterial growth. The format is functional.
The test system of another assay is Saprolegnia. The experiment in a line: Antifungal activity against Saprolegnia species assessed as lowest dose level for total inhibition of fungal growth. The format is functional.
The next assay concerns Phialophora verrucosa. The experiment in a line: Antifungal activity against Phialophora verrucosa assessed as lowest dose level for total inhibition of fungal growth. In kind it is functional.
A further assay deals with Mucor. The experiment in a line: Antifungal activity against Mucor species assessed as lowest dose level for total inhibition of fungal growth. The format is functional.
A further assay relates to Cryptococcus neoformans. The experiment in a line: Antifungal activity against Cryptococcus neoformans assessed as lowest dose level for total inhibition of fungal growth. In kind it is functional.
The test system of another assay is Microsporum canis. The experiment in a line: Antifungal activity against Microsporum canis assessed as lowest dose level for total inhibition of fungal growth. In kind it is functional.

Calls of active or inactive are those of the source. No cut-off for these calls is given here.

With `Clc1ccc(C(Cc2ccccc2Cl)Cn2ccnc2)cc1.O=[N+]([O-])O` (stereo not given), the Activity in the assay on Sporothrix schenckii is 100 µg/mL; in assay [2] it was 10 µg/mL; in the assay with Candida tropicalis, 100 µg/mL; with Candida albicans [3], 100 µg/mL; in the assay on Streptococcus pyogenes, 10 µg/mL; in assay [4], less than 1 µg/mL. Also, the Activity was less than 1 µg/mL in the assay with Trichophyton rubrum; 100 µg/mL in the assay on Aspergillus fumigatus; 1 µg/mL in assay [5]; 100 µg/mL in the assay with Saprolegnia; 100 µg/mL in the assay on Phialophora verrucosa; 10 µg/mL in the assay with Mucor. Also, the figures for the Activity with Cryptococcus neoformans and in the assay with Microsporum canis were less than 1 µg/mL and 10 µg/mL, respectively. For the same compound, in the assay on Candida albicans [1], the outcome was inactive.
Turning to `Clc1ccc(CC(Cn2ccnc2)c2ccccc2Cl)cc1.O=[N+]([O-])O` (stereo not given), the Activity with Sporothrix schenckii is 10 µg/mL; in assay [2], 100 µg/mL; with Candida tropicalis, greater than 100 µg/mL; in the assay with Candida albicans [3] it was 10 µg/mL; in the assay on Streptococcus pyogenes, 1 µg/mL; in assay [4], less than 1 µg/mL. Besides, the Activity with Trichophyton rubrum was less than 1 µg/mL; with Aspergillus fumigatus, 100 µg/mL; in assay [5], 1 µg/mL; with Saprolegnia, 100 µg/mL; in the assay with Phialophora verrucosa it was 100 µg/mL; in the assay on Mucor, 100 µg/mL. For the same compound, the results for the Activity in the assay on Cryptococcus neoformans and in the assay on Microsporum canis were less than 1 µg/mL and 10 µg/mL, respectively. The result with Candida albicans [1] was Active.
Take `Clc1ccc(C(Cc2ccc(Br)cc2)Cn2ccnc2)c(Cl)c1.O=[N+]([O-])O` (stereo not given): the Activity is 10 µg/mL in the assay with Sporothrix schenckii; 10 µg/mL in assay [2]; 10 µg/mL in the assay with Candida tropicalis; 10 µg/mL in the assay on Candida albicans [3]; less than 1 µg/mL in the assay on Streptococcus pyogenes; less than 1 µg/mL in [4]. Also, the Activity was less than 1 µg/mL with Trichophyton rubrum; 100 µg/mL with Aspergillus fumigatus; less than 1 µg/mL in [5]; 100 µg/mL in the assay with Saprolegnia; 10 µg/mL with Phialophora verrucosa; 10 µg/mL in the assay with Mucor. Besides, the Activity in the assay with Cryptococcus neoformans was less than 1 µg/mL; in the assay with Microsporum canis, 10 µg/mL. Also, the result in the assay with Candida albicans [1] was inactive.
As to `Clc1ccc(CC(Cn2ccnc2)c2ccc(Cl)cc2Cl)cc1.O=[N+]([O-])O` (stereo not given), the Activity with Sporothrix schenckii is 10 µg/mL; in [2], 10 µg/mL; in the assay with Candida tropicalis, 100 µg/mL; in the assay with Candida albicans [3], 100 µg/mL; with Streptococcus pyogenes, less than 1 µg/mL; in [4], less than 1 µg/mL. The Activity in the assay with Trichophyton rubrum is less than 1 µg/mL; in the assay with Aspergillus fumigatus, 100 µg/mL; in [5], less than 1 µg/mL; with Saprolegnia, less than 1 µg/mL; in the assay on Phialophora verrucosa, 100 µg/mL; in the assay on Mucor it was 100 µg/mL. In addition, the Activity is less than 1 µg/mL with Cryptococcus neoformans and 10 µg/mL in the assay with Microsporum canis. Moreover, the result with Candida albicans [1] was inactive.
As for `COc1ccc(CC(Cn2ccnc2)c2ccc(Cl)cc2Cl)cc1.O=[N+]([O-])O` (stereo not given), the Activity in the assay with Sporothrix schenckii is 10 µg/mL; in assay [2], 10 µg/mL; in the assay with Candida tropicalis, 10 µg/mL; in the assay with Candida albicans [3], 10 µg/mL; in the assay with Streptococcus pyogenes, 1 µg/mL; in assay [4] it was less than 1 µg/mL. Besides, the Activity is less than 1 µg/mL with Trichophyton rubrum; 100 µg/mL in the assay on Aspergillus fumigatus; 1 µg/mL in assay [5]; 100 µg/mL in the assay with Saprolegnia; 10 µg/mL in the assay with Phialophora verrucosa; 10 µg/mL in the assay with Mucor. For the same compound, the Activity in the assay on Cryptococcus neoformans was less than 1 µg/mL; in the assay with Microsporum canis it was 100 µg/mL. The outcome in the assay on Candida albicans [1] was inactive.
`Clc1ccc(CCC(Cn2ccnc2)c2ccc(Cl)cc2Cl)cc1.O=[N+]([O-])O` (stereo not given): the Activity in the assay with Sporothrix schenckii is less than 1 µg/mL; in [2] it was 1 µg/mL; in the assay with Candida tropicalis, 10 µg/mL; with Candida albicans [3], 10 µg/mL; with Streptococcus pyogenes, less than 1 µg/mL; in assay [4], less than 1 µg/mL. The Activity is less than 1 µg/mL in the assay with Trichophyton rubrum; 100 µg/mL in the assay with Aspergillus fumigatus; less than 1 µg/mL in [5]; 10 µg/mL in the assay with Saprolegnia; 10 µg/mL in the assay on Phialophora verrucosa; 100 µg/mL with Mucor. Further, the values for the Activity in the assay on Cryptococcus neoformans and in the assay with Microsporum canis were less than 1 µg/mL and 10 µg/mL, respectively. Further, in the assay on Candida albicans [1], the result was inactive.
Regarding `Clc1ccc(C(CCc2ccccc2)Cn2ccnc2)c(Cl)c1.O=[N+]([O-])O` (stereo not given), the Activity in the assay on Sporothrix schenckii is 10 µg/mL; in [2], 1 µg/mL; with Candida tropicalis, greater than 100 µg/mL; with Candida albicans [3] it was 100 µg/mL; in the assay on Streptococcus pyogenes, less than 1 µg/mL; in assay [4] it was less than 1 µg/mL. The Activity with Trichophyton rubrum was less than 1 µg/mL; in the assay on Aspergillus fumigatus, 100 µg/mL; in assay [5], less than 1 µg/mL; in the assay with Saprolegnia, 10 µg/mL; in the assay with Phialophora verrucosa it was 10 µg/mL; in the assay with Mucor it was 100 µg/mL. The Activity in the assay on Cryptococcus neoformans was less than 1 µg/mL; with Microsporum canis it was 10 µg/mL. Besides, in the assay with Candida albicans [1], the outcome was inactive.
Regarding `Clc1ccccc1CC(Cn1ccnc1)c1ccccc1Cl.O=[N+]([O-])O` (stereo not given), the Activity is 10 µg/mL with Sporothrix schenckii; 100 µg/mL in [2]; greater than 100 µg/mL in the assay with Candida tropicalis; 100 µg/mL in the assay on Candida albicans [3]; less than 1 µg/mL with Streptococcus pyogenes; less than 1 µg/mL in assay [4]. The Activity in the assay with Trichophyton rubrum is less than 1 µg/mL; in the assay with Aspergillus fumigatus it was 10 µg/mL; in assay [5], 1 µg/mL; in the assay on Saprolegnia, 100 µg/mL; with Phialophora verrucosa, 100 µg/mL; with Mucor it was 100 µg/mL. The Activity in the assay with Cryptococcus neoformans is less than 1 µg/mL; in the assay on Microsporum canis it was 10 µg/mL. Moreover, the outcome in the assay with Candida albicans [1] was inactive.
`Clc1ccc(CC(Cn2ccnc2)c2ccccc2Br)c(Cl)c1.O=[N+]([O-])O` (stereo not given): the Activity with Sporothrix schenckii is 10 µg/mL; in [2], less than 1 µg/mL; with Candida tropicalis, 100 µg/mL; with Candida albicans [3] it was 10 µg/mL; in the assay on Streptococcus pyogenes, 10 µg/mL; in assay [4] it was less than 1 µg/mL. For the same compound, the Activity in the assay on Trichophyton rubrum is less than 1 µg/mL; in the assay with Aspergillus fumigatus, 10 µg/mL; in assay [5] it was less than 1 µg/mL; in the assay with Saprolegnia, 100 µg/mL; in the assay on Phialophora verrucosa, 100 µg/mL; with Mucor it was 10 µg/mL. Besides, the Activity with Cryptococcus neoformans is less than 1 µg/mL; in the assay with Microsporum canis, 10 µg/mL. The result in the assay on Candida albicans [1] was inactive.
Take `Clc1ccc(C(Cc2ccccc2)Cn2ccnc2)c(Cl)c1.O=[N+]([O-])O` (stereo not given): the Activity with Sporothrix schenckii is 10 µg/mL; in [2] it was 10 µg/mL; with Candida tropicalis, 10 µg/mL; with Candida albicans [3], 100 µg/mL; in the assay with Streptococcus pyogenes, less than 1 µg/mL; in assay [4], less than 1 µg/mL. Also, the Activity was less than 1 µg/mL in the assay on Trichophyton rubrum; 100 µg/mL in the assay on Aspergillus fumigatus; less than 1 µg/mL in [5]; 10 µg/mL in the assay on Saprolegnia; 10 µg/mL in the assay on Phialophora verrucosa; 100 µg/mL with Mucor. The Activity in the assay on Cryptococcus neoformans was less than 1 µg/mL; in the assay with Microsporum canis, 10 µg/mL. For the same compound, in the assay on Candida albicans [1], the outcome was inactive.
Regarding `Clc1ccc(CC(Cn2ccnc2)c2c(Cl)cccc2Cl)cc1.O=[N+]([O-])O` (stereo not given), the Activity in the assay on Sporothrix schenckii is 100 µg/mL; in assay [2], 100 µg/mL; with Candida tropicalis, greater than 100 µg/mL; with Candida albicans [3], 100 µg/mL; in the assay on Streptococcus pyogenes, less than 1 µg/mL; in assay [4], less than 1 µg/mL. In addition, the Activity is less than 1 µg/mL with Trichophyton rubrum; 100 µg/mL in the assay with Aspergillus fumigatus; less than 1 µg/mL in assay [5]; 100 µg/mL with Saprolegnia; 100 µg/mL with Phialophora verrucosa; greater than 100 µg/mL in the assay on Mucor. For the same compound, the Activity in the assay on Cryptococcus neoformans is 100 µg/mL; with Microsporum canis, less than 1 µg/mL. Further, the result in the assay on Candida albicans [1] was inactive.
